Patent US20100120708A1, “Combination therapy comprising ZD6474 and gemcitabine for anti-cancer therapy” (priority 2002, published 2010)
“And” between values parts separate entries of the source, which are not always exact repeats. Equal values may be shown once. Where a name gives a salt, the structure may show the parent alone.

Tested on: L 3.6 μl human pancreatic cancer cells
Assay: Effects of ZD6474 and gemcitabine therapy on primary pancreatic tumour growth and metastases growing orthotopically in nude mice
Type: in vivo
Conditions: sacrificed day 32, ZD6474 50 mg/kg oral daily, gemcitabine 100 mg/kg i.p. twice weekly; for Incidence Pancreas (incidence of pancreatic tumours): orthotopic injection into pancreas, treatment from 8 days post-tumour injection; for Incidence Pancreas (incidence of pancreatic tumours) / LN Met (incidence of lymph node metastases) / Liver Met (incidence of liver metastases) / Peritoneal Carcinosis (incidence): animals affected/animals in group; for LN Met (incidence of lymph node metastases) / Liver Met (incidence of liver metastases) / Peritoneal Carcinosis (incidence): orthotopic; for Tumour Weight Average +/− std dev: primary pancreatic tumour weight, control 1231 mg; for Body Weight Average +/− std dev: control 21.4 g
Description: Model to Investigate Effects of ZD6474 and Gemcitabine Therapy on Primary Pancreatic Tumour Growth and Metastases Growing Orthotopically in Nude Mice
Nude mice (n=10 per group) were injected with 1×10^6 […] human pancreatic cancer cells into the pancreas. The mice received one of the following treatment regimes 8 days post-tumour injection:
Group 1—control group received saline by daily oral application; Group 2—a single daily dose of ZD6474 (50 mg/kg oral gavage); Group 3—gemcitabine twice weekly (on days 2 and 5 of each treatment week) (100 mg/kg by intraperitoneal injection (i.p.)); Group 4—a single daily dose of ZD6474 (50 mg/kg oral gavage) and twice weekly gemcitabine (on days 2 and 5 of each treatment week) (GEM: 100 mg/kg i.p.).
The animals were sacrificed 32 days after tumour cell injection.
The incidence of pancreatic tumours, liver metastases, lymph node metastases and peritoneal carcinosis was evaluated. The primary pancreatic tumour weight was measured. All macroscopically enlarged lymph nodes and liver nodules were confirmed by histopathology (H&E staining).

Compound	Incidence Pancreas (incidence of pancreatic tumours)	LN Met (incidence of lymph node metastases)	Liver Met (incidence of liver metastases)	Peritoneal Carcinosis (incidence)	Tumour Weight Average +/− std dev	Body Weight Average +/− std dev	Tumour Weight Average +/− std dev (listed as gemcitabine)
COc1cc2c(Nc3ccc(Br)cc3F)ncnc2cc1OCC1CCN(C)CC1 [ZD6474, 4-(4-bromo-2-fluoroanilino)-6-methoxy-7-(1-methylpiperidin-4-ylmethoxy)quinazoline]	10/10	3/10	1/10	1/10	541 mg and 541 ± 201 mg	19.2 ± 2.9 g	
Nc1ccn([C@@H]2O[C@H](CO)[C@@H](O)C2(F)F)c(=O)n1 [Gemcitabine, 2′-deoxy-2′,2′-difluorocytidine monohydrochloride (β-isomer)]	9/9	9/9	4/9	3/9	836 ± 291 mg	21.7 ± 2.1 g	836 mg
